Some results are limits rather than exact numbers.

Experiment [1] concerns HEK-Blue IL-23 cells (IL-23-stimulated STAT3 SEAP reporter; TYK2 JH2). The experiment can be described thus: HEK-Blue IL-23 SEAP reporter assay for profiling TYK2 pseudokinase (JH2) inhibition. It counts as cell-based. Particulars: 10 ng/mL human recombinant IL-23, SEAP reporter, read-out: IL23 (TYK2 inhibitory activity, IC50). The gist of the method:
(§1)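 Cells were pretreated 60 min with serially diluted compounds, then stimulated with 10 ng/mL human IL-23 for 22-24 hours (STAT3 line) or 1 ng/mL human IFNα for 16-18 h (STAT1 line). SEAP induction read with QUANTI-Blue.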

The target of the next experiment is T1, TYK2 kinase domain (JH1) (Homo sapiens, UniProt P29597).
T1 construct: recombinant purified His or GST-tagged catalytic domain for each enzyme; made in house
T1 sequence (P29597 897-1176 limits assumed): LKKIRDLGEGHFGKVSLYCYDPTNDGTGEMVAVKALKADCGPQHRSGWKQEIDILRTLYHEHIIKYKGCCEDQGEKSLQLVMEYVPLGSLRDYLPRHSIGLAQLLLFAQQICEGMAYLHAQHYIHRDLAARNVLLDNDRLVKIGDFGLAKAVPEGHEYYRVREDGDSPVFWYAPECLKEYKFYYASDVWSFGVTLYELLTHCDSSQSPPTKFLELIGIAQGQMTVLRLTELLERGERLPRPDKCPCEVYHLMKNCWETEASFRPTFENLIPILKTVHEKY
The experiment can be described thus: HTRF-based selectivity assay, TYK2 catalytic domain. The format is biochemical. Particulars: recombinant catalytic domain, ATP 20 μM. On the procedure:
(§2) Example B-2: HTRF-Based Selectivity Assay
(§3) The ability of compounds to inhibit the activity of JAK1, JAK2, JAK3 and TYK2 is measured using a recombinant purified His or GST-tagged catalytic domain for each enzyme (JAK1, JAK2 and TYK2 are generated in-house; JAK3 was purchased from Carna biosciences, Cat #08-046) in an HTRF format biochemical assay. The reactions employs a commercial peptide substrate from Cisbio (Cat #62TK0PEC). The basic assay protocol is as follows: first, 2.5 μL of diluted compounds (4×) in DMSO are dispensed into a 384-well Optiplate. Next, 2.5 μL of enzyme (final concentrations for enzymes are: TYK2—700 ng/mL, JAK1—80.6 ng/mL, JAK2—2.1 ng/mL and JAK3—171.8 ng/mL) is added and incubated at RT for 5-20 min. Finally, 5 μl of mixture of 2× ATP [Final concentration 20 μM for TYK2, 21.43 μM for JAK1, 14.7 μM for JAK2 and 2.12 μM for JAK3]+2× Substrate [Final concentration 217 nM for TYK2, 454.7 nM for JAK1, 200 nM for JAK2 and 257.4 nM for JAK3] is added to 384 well Optiplate. Composition of Kinase assay buffer used in the assay is as follows: HEPES 50 mM, EGTA 1 mM, MgCl2 10 mM, DTT 2 mM, Tween-20 0.01% and water. Then the plates are shaken and then incubated at 26.5° C. for 60 min.

In experiment [2] the test system is HEK-Blue IFNα/β cells (IFNα-stimulated STAT1 SEAP reporter; TYK2 JH2). The experiment can be described thus: HEK-Blue IFNα/β SEAP reporter assay for profiling TYK2 pseudokinase (JH2) inhibition. The format is cell-based. Particulars: Homo sapiens, HEK-Blue, 1 ng/mL human recombinant IFNα, read-out: IFNα (TYK2 inhibitory activity, IC50). The gist of the method: as §1

Experiment [3] has as its system HEK-Blue IL-2 reporter cells (IL-2-stimulated STAT5 SEAP reporter). Put plainly: HEK-Blue IL-2 SEAP reporter assay for determining selectivity. It counts as cell-based. The settings on record: 4 ng/mL human recombinant IL-2. The gist of the method:
(§4)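 Cells were plated for 20-22 h, then pretreated with serially diluted compound for 60 min. They were stimulated for 24 h with 4 ng/mL human recombinant IL-2 or 50 ng/mL human recombinant IFNγ, and SEAP induction was read with QUANTI-Blue.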

A further experiment deals with T2, JAK3 kinase domain (JH1) (Homo sapiens, UniProt P52333).
T2 construct: recombinant purified His or GST-tagged catalytic domain for each enzyme; purchased Carna biosciences 08-046
T2 sequence (P52333 822-1111 limits assumed): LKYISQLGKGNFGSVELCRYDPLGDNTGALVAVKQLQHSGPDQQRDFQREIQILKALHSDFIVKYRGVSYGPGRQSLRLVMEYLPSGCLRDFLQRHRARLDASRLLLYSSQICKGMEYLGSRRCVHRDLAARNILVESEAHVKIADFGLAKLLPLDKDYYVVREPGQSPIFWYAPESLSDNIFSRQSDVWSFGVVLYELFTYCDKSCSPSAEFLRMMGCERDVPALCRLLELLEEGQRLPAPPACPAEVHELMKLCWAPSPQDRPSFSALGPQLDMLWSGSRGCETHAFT
The experiment can be described thus: HTRF-based selectivity assay, JAK3 catalytic domain. Particulars: recombinant catalytic domain, ATP 2.12 μM. The format is biochemical. On the procedure:
as §2, §3

A further experiment has as its target T3, JAK1 kinase domain (JH1) (Homo sapiens, UniProt P23458).
T3 construct: recombinant purified His or GST-tagged catalytic domain for each enzyme; made in house
The experiment can be described thus: HTRF-based selectivity assay, JAK1 catalytic domain. It counts as biochemical. The settings on record: recombinant catalytic domain, ATP 21.43 μM. On the procedure: as §2, §3

The target of the next experiment is T4, JAK2 kinase domain (JH1) (Homo sapiens, UniProt O60674).
T4 construct: recombinant purified His or GST-tagged catalytic domain for each enzyme; made in house
T4 sequence (O60674 849-1124 limits assumed): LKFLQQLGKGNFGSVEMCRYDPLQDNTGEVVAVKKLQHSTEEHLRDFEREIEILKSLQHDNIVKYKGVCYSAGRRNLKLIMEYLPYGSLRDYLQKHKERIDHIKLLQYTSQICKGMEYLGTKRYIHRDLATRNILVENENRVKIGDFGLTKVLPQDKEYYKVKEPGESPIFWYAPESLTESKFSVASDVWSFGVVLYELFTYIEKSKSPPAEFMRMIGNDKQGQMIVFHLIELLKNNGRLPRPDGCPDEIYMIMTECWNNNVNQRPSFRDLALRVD
Put plainly: HTRF-based selectivity assay, JAK2 catalytic domain. Particulars: recombinant catalytic domain, ATP 14.7 μM. The format is biochemical. As for the experimental part:
as §2, §3

The subject of experiment [4] is HEK-Blue IFNγ reporter cells (IFNγ-stimulated STAT1 SEAP reporter). The experiment can be described thus: HEK-Blue IFNγ SEAP reporter assay for determining selectivity. The format is cell-based. Particulars: Homo sapiens, HEK-Blue, 50 ng/mL human recombinant IFNγ, read-out: IFN-γ (SEAP selectivity, IC50). An outline of the steps: as §4

T3 sequence (P23458 875-1153 limits assumed): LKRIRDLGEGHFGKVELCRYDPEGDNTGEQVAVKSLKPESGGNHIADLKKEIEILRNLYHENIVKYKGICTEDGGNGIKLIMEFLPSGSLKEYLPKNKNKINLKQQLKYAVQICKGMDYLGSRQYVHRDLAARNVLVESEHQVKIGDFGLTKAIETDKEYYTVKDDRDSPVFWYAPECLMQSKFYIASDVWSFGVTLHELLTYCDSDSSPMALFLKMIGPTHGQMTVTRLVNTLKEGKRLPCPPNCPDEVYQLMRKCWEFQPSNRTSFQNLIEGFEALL

In the case of `[2H]C([2H])([2H])NC(=O)c1nnc(NC(=O)[C@H]2C[C@H]2F)cc1Nc1cccc2c1N(C)Cc1nc(C)nn1-2` (single isomer, unassigned) [Compound 8], the IC50 in experiment [1] is < 30 nM; on TYK2 kinase domain (JH1) it was > 1000 nM; in experiment [2], 30 to 300 nM; in experiment [3], > 1000 nM; on JAK3 kinase domain (JH1) it was > 1000 nM; at JAK1 kinase domain (JH1), > 1000 nM. The IC50 on JAK2 kinase domain (JH1) was > 1000 nM.

For the compound `[2H]C([2H])([2H])NC(=O)c1nnc(Nc2ccc(C(F)(F)F)cn2)cc1Nc1cccc2c1N(C)Cc1nc(C)nn1-2` [Compound 10, 4-((2,5-dimethyl-4,5-dihydro-[1,2,4]triazolo[1,5-a]quinoxalin-6-yl)amino)-N-(methyl-d3)-6-((5-(trifluoromethyl)pyridin-2-yl)amino)pyridazine-3-carboxamide], the IC50 in experiment [1] was < 30 nM; at TYK2 kinase domain (JH1) it was > 1000 nM; in experiment [2], 30 to 300 nM; in experiment [3] it was > 1000 nM; on JAK3 kinase domain (JH1), > 1000 nM; on JAK1 kinase domain (JH1) it was > 1000 nM. The IC50 on JAK2 kinase domain (JH1) was > 1000 nM.

Consider `[2H]C([2H])([2H])NC(=O)c1nnc(Nc2ccc(C)cn2)cc1Nc1cccc2c1N(C)Cc1nc(C)nn1-2` [Compound 11, 4-((2,5-dimethyl-4,5-dihydro-[1,2,4]triazolo[1,5-a]quinoxalin-6-yl)amino)-N-(methyl-d3)-6-((5-methylpyridin-2-yl)amino)pyridazine-3-carboxamide], for which the IC50 in experiment [1] was < 30 nM; at TYK2 kinase domain (JH1), > 1000 nM; in experiment [2], < 30 nM; at JAK3 kinase domain (JH1) it was > 1000 nM; at JAK1 kinase domain (JH1), > 1000 nM; on JAK2 kinase domain (JH1), > 1000 nM.

With `[2H]C([2H])([2H])NC(=O)c1nnc(Nc2ccc(F)cn2)cc1Nc1cccc2c1N(C)Cc1nc(C)nn1-2` [Compound 12, 4-((2,5-dimethyl-4,5-dihydro-[1,2,4]triazolo[1,5-a]quinoxalin-6-yl)amino)-6-((5-fluoropyridin-2-yl)amino)-N-(methyl-d3)pyridazine-3-carboxamide], the IC50 in experiment [1] is < 30 nM; at TYK2 kinase domain (JH1) it was > 1000 nM; in experiment [2], < 30 nM; in experiment [3], 30 to 300 nM; at JAK3 kinase domain (JH1), > 1000 nM; at JAK1 kinase domain (JH1) it was > 1000 nM. Moreover, at JAK2 kinase domain (JH1), the IC50 is > 1000 nM.

On to `[2H]C([2H])([2H])NC(=O)c1nnc(Nc2ccc(C#N)cn2)cc1Nc1cccc2c1N(C)Cc1nc(C)nn1-2` [Compound 13, 6-((5-cyanopyridin-2-yl)amino)-4-((2,5-dimethyl-4,5-dihydro-[1,2,4]triazolo[1,5-a]quinoxalin-6-yl)amino)-N-(methyl-d3)pyridazine-3-carboxamide], for which the IC50 in experiment [1] was < 30 nM; at TYK2 kinase domain (JH1), > 1000 nM; in experiment [2], < 30 nM; in experiment [3], > 1000 nM; at JAK3 kinase domain (JH1), > 1000 nM; on JAK1 kinase domain (JH1), > 1000 nM. Further, the IC50 on JAK2 kinase domain (JH1) was > 1000 nM.

Consider `[2H]C([2H])([2H])NC(=O)c1cnc(NC(=O)C2CC2)cc1Nc1cccc2c1N(C)Cc1nn(C)nc1-2` [Compound 45, 6-(cyclopropanecarboxamido)-4-((2,5-dimethyl-4,5-dihydro-2H-[1,2,3]triazolo[4,5-c]quinolin-6-yl)amino)-N-(methyl-d3)nicotinamide], for which the IC50 was < 30 nM in experiment [1]; < 30 nM in experiment [2]; > 1000 nM in experiment [3]; 30 to 300 nM in experiment [4]; > 1000 nM at JAK3 kinase domain (JH1); > 1000 nM at JAK1 kinase domain (JH1). Also, the IC50 at JAK2 kinase domain (JH1) was > 1000 nM.

Take `[2H]C([2H])([2H])NC(=O)c1nnc(NC(=O)C2CC2)cc1Nc1cccc2c1N(C)Cc1nn(C)nc1-2` [Compound 46, 6-(cyclopropanecarboxamido)-4-((2,5-dimethyl-4,5-dihydro-2H-[1,2,3]triazolo[4,5-c]quinolin-6-yl)amino)-N-(methyl-d3)pyridazine-3-carboxamide]: the IC50 was < 30 nM in experiment [1]; < 30 nM in experiment [2]; > 1000 nM in experiment [3]; 30 to 300 nM in experiment [4]; > 1000 nM on JAK3 kinase domain (JH1); > 1000 nM on JAK1 kinase domain (JH1). Further, the IC50 on JAK2 kinase domain (JH1) is > 1000 nM.

For the compound `[2H]C([2H])([2H])NC(=O)c1cnc(NC(=O)C2CC2)cc1Nc1cccc2c1N(C([2H])([2H])[2H])Cc1nn(C)nc1-2` [Compound 47, 6-(cyclopropanecarboxamido)-N-(methyl-d3)-4-((2-methyl-5-(methyl-d3)-4,5-dihydro-2H-[1,2,3]triazolo[4,5-c]quinolin-6-yl)amino)nicotinamide], the IC50 in experiment [1] was < 30 nM; on TYK2 kinase domain (JH1), > 1000 nM; in experiment [2] it was < 30 nM; in experiment [3], > 1000 nM; in experiment [4], 30 to 300 nM; at JAK3 kinase domain (JH1), > 1000 nM. Besides, the IC50 at JAK1 kinase domain (JH1) is > 1000 nM.

For `[2H]C([2H])([2H])NC(=O)c1cnc(NC(=O)C2CC2)cc1Nc1cccc2c1N(C)C([2H])([2H])c1nn(C)nc1-2` [Compound 52, 6-(cyclopropanecarboxamido)-4-((2,5-dimethyl-4,5-dihydro-2H-[1,2,3]triazolo[4,5-c]quinolin-6-yl-4,4-d2)amino)-N-(methyl-d3)nicotinamide], the concentration for half-maximal inhibition (IC50) in experiment [1] was < 30 nM; on TYK2 kinase domain (JH1), > 1000 nM; in experiment [2], < 30 nM; in experiment [3], > 1000 nM; at JAK3 kinase domain (JH1), > 1000 nM; at JAK1 kinase domain (JH1) it was > 1000 nM. Besides, at JAK2 kinase domain (JH1), the IC50 is > 1000 nM.

Consider `[2H]C([2H])([2H])NC(=O)c1cnc(NC(=O)C2CC2)cc1Nc1cccc2c1N(C)CCn1cnnc1-2` [Compound 78, 6-(cyclopropanecarboxamido)-N-(methyl-d3)-4-((7-methyl-6,7-dihydro-5H-benzo[f][1,2,4]triazolo[4,3-d][1,4]diazepin-8-yl)amino)nicotinamide], for which the IC50 in experiment [1] was 30 to 300 nM; on TYK2 kinase domain (JH1), > 1000 nM; in experiment [2], > 1000 nM; at JAK3 kinase domain (JH1) it was > 1000 nM; at JAK1 kinase domain (JH1), > 1000 nM; on JAK2 kinase domain (JH1) it was > 1000 nM.

Consider `[2H]C([2H])([2H])NC(=O)c1nnc(NC(=O)C2CC2)cc1Nc1nccc2c1N(C)Cc1nn(C)nc1-2` [Compound 88, 6-(cyclopropanecarboxamido)-4-((2,5-dimethyl-4,5-dihydro-2H-[1,2,3]triazolo[4,5-c][1,7]naphthyridin-6-yl)amino)-N-(methyl-d3)pyridazine-3-carboxamide], for which the IC50 in experiment [1] is < 30 nM; at TYK2 kinase domain (JH1), > 1000 nM; in experiment [2], < 30 nM; in experiment [3], 300 to 1000 nM; in experiment [4] it was 30 to 300 nM; on JAK1 kinase domain (JH1), > 1000 nM. Further, the IC50 at JAK2 kinase domain (JH1) is > 1000 nM.

For `[2H]C([2H])([2H])NC(=O)c1cnc(NC(=O)C2CC2)cc1Nc1nccc2c1N(C)Cc1nn(C)nc1-2` [Compound 89, 6-(cyclopropanecarboxamido)-4-((2,5-dimethyl-4,5-dihydro-2H-[1,2,3]triazolo[4,5-c][1,7]naphthyridin-6-yl)amino)-N-(methyl-d3)nicotinamide], the IC50 in experiment [1] is < 30 nM; on TYK2 kinase domain (JH1), > 1000 nM; in experiment [2], < 30 nM; in experiment [3], > 1000 nM; at JAK3 kinase domain (JH1), > 1000 nM; on JAK1 kinase domain (JH1), > 1000 nM. Besides, the IC50 at JAK2 kinase domain (JH1) is > 1000 nM.

Values taken from patent US12084458B2, “Substituted pyridines, pyridazines, and pyrimidines as TYK2 inhibitors” (Sudo Biosciences Limited, priority 2021, dated 2024).
